The subject of series [1] is monoamine transporter. In words: Monoamine transporter uptake activity. Type of series: cell-based. The settings on record: FIG. 23.
Series [2] addresses T1, D3 dopamine receptor (Homo sapiens (Human), UniProt P35462). In words: Current clamp recording of spontaneous action potentials in AtT-20 cells expressing D3. Type of series: cell-based. The note with it: 100 nM dopamine or 300 nM PBZI.
Target sequence in this assay (P35462 other isoform, or with tags, fused parts or gaps): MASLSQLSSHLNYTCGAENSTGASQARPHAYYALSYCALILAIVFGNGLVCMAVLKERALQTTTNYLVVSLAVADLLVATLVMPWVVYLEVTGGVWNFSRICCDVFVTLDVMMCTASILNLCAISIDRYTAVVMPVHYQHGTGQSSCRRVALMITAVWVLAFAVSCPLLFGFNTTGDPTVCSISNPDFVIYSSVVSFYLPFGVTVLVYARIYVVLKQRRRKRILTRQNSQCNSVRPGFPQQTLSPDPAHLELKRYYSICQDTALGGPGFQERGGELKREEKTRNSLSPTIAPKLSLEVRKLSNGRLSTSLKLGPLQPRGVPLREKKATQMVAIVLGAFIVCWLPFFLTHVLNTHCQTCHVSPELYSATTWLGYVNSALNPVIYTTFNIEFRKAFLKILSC
Excerpt: Drug solutions were delivered to cells via a multi-barreled micropipette array. The current responses were normalized to the cell capacitance, to account for variation in cell size.
Series [3] addresses T1, D3 dopamine receptor. Nature of the series: D3 receptor tolerance and SRT: GIRK response to repeated agonist application in AtT-20 cells. Format: cell-based. The note with it: 1000 nM PBZI applied simultaneously with 100 nM dopamine.
Target sequence in this assay (P35462 other isoform, or with tags, fused parts or gaps): as above
Series [4] relates to Balb/c mice. In words: Locomotor activity (open field, TruScan) in Balb/c mice.
Description: Therefore, three different doses of the lead compound are administered and their effects on locomotor activity are determined. The dosage is determined based on the functional EC50 values and binding affinity of the lead compound from the cell-based assays described above. The compound is administered to Balb/c mice and locomotor activity is monitored using the TruScan Automated Behavioral Monitoring system (Coulborn Instruments).
A total of 12 young adult, male Balb/c mice were obtained form Charles River, Inc. (Wilmington, Mass.), and housed in groups of four in standard cages. The animals were maintained on a 12 hour light/12 hour dark cycle and permitted ad lib access to food and water. Experiments were conducted during the animal's light phase. […] For PD128907, separate groups of Balb/c mice received subcutaneous injections of saline (n=4) or 0.05 or 0.4 mg/kg PD128907 (n=4, for each). Locomotion (‘distance traveled’) scores of drug-injected animals were collapsed across 10-min intervals and for comparison purposes were normalized to saline injected animals (FIG. 12A). The experiment was conducted on three separate occasions.
The nature of series [5]: Water solubility. Format: physicochemical.
Series [6] concerns the target D4.2. The note with it: Scheideler et al., 1997; cited from earlier work.
Series [7] deals with c-fos expression. The note with it: in vivo; cited from earlier work.
Series [8] concerns the target T1, D3 dopamine receptor. The settings on record: cited from earlier work.
Target sequence in this assay (P35462 whole entry): as the sequence (P35462 other isoform, or with tags, fused parts or gaps) above, with S9G counted along it
Series [9] deals with D1-like receptors. The settings on record: cited from earlier work.
Series [10] deals with D2S (Homo sapiens (Human), UniProt P14416). The note with it: Scheideler et al., 1997; cited from earlier work.
D2S, sequence (P14416 other isoform, or with tags, fused parts or gaps): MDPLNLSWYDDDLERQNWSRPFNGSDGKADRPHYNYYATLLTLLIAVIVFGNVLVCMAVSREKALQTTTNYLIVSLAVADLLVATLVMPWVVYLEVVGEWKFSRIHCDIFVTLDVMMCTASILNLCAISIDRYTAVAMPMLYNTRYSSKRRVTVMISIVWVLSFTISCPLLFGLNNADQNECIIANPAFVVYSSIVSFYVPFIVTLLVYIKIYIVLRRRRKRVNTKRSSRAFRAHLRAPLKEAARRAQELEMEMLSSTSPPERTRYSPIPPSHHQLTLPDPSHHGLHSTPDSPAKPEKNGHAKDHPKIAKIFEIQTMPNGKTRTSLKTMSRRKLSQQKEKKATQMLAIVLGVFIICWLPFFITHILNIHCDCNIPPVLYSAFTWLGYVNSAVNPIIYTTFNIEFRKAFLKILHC

The text below walks through data of patent US9289400B2, “D3 dopamine receptor agonists to treat dyskinesia in parkinson's disease” (priority 2010, dated 2016).

SMILES strings stand for the structures. “Also recorded” adds a separate entry of the source. Where two headings read alike, the source gives them in different places.

Regarding `CC(N)CCc1ccccc1Cl` (centres unmarked) [ES609], the “monoamine transporter uptake activity” value in series [1] was “inhibits monoamine transporter uptake activity”.
Turning to `CCCN1CC[C@@H]2c3cc(O)ccc3CC[C@@H]21` [PBZI, (3aS,9bR)-3-propyl-1,2,3a,4,5,9b-hexahydrobenzo[e]indol-8-ol], the “inhibition of spontaneous action potentials on repeated application” value in series [2] is “inhibited spontaneous action potentials during the first application and subsequent applications; also recorded: inhibited the spontaneous action potentials during the first and second treatment”. For the same compound, the “competition with dopamine to block development of tolerance and SRT” value in [3] was “able to compete effectively with dopamine; also recorded: blocked the development of tolerance and SRT”. Also, the effect on locomotion result in [4] (1 mg/kg sc) was “no significant effect”. Besides, the reduction of locomotion result in [4] (10 mg/kg sc, within 20-min) is on record as “approximately 90%”. Besides, in [4] (PBZI 10 mg/kg sc, PD128907 0.4 mg/kg sc), the “duration of hypoactivity post-injection” value came to 40 min. In [4] (sc, PBZI 10 mg/kg, PD128907 0.05-0.4 mg/kg, normalized to saline), the locomotor response entry was “only elicit hypoactivity; also recorded: monophasic hypoactive locomotor response; also recorded: dose-dependent and monophasic inhibition of locomotion”. Moreover, the water solubility result in series [5] is given as “water soluble”. The Ki in series [6] is 280 nM; in series [8] (D3, Scheideler et al., 1997, read-out: Ki) it was 27 nM; in series [8] (source not stated, read-out: D3 dopamine receptor binding affinity Ki), 22 nM; in series [10] it was 1800 nM. Moreover, the “c-fos expression in medial prefrontal cortex and shell region of nucleus accumbens” value in [7] is “specific increases in c-fos expression”. Also, in [9], the “Binding at D1-like receptors and a panel of other neurotransmitter receptors, ion channels and transporters” value is recorded as “negligible”.

As a reminder, the Ki is a dissociation constant, usually derived from enzyme kinetics or from competition with a known ligand.
